From the Kinase Knowledgebase extract (Sharma et al. 2016) come the findings set out here.

This experiment deals with PIK3CA (human) (UniProt P42336). In words: Assessment of PIK3CA Kinase Activity.
PIK3CA (human), sequence (P42336 whole entry, looked up): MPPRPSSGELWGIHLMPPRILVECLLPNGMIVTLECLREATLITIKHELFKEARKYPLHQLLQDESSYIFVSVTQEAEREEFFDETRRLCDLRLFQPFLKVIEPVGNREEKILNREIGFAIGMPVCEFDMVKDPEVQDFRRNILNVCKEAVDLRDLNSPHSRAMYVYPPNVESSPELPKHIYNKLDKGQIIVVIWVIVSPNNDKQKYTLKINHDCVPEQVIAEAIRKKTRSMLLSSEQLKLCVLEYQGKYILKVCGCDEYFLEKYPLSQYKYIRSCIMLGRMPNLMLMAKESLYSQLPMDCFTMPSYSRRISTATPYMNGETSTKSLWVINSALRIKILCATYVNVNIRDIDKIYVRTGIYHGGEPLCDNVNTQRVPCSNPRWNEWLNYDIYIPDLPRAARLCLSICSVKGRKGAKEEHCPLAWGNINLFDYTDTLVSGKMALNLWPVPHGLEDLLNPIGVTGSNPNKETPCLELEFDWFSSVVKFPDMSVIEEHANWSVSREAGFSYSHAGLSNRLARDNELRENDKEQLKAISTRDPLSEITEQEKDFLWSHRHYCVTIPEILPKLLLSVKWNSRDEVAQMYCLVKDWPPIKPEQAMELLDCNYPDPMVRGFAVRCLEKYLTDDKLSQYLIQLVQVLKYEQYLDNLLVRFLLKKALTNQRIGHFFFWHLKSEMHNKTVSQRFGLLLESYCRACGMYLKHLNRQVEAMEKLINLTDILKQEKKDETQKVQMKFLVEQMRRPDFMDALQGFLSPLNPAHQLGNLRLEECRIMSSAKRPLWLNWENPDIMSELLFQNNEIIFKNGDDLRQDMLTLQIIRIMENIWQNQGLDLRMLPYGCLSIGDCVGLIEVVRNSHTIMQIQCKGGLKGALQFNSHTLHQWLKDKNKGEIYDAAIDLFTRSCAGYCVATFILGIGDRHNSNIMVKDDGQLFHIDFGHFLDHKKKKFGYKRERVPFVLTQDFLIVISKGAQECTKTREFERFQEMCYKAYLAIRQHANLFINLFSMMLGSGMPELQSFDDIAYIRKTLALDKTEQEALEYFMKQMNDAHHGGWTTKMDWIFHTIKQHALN
The term IC50 denotes the concentration that gives 50% inhibition. Consider `COC(=O)c1ccc2c(c1)OCCn1cc(-c3cccc(C(C)C)c3)nc1-2`, for which the IC50 is below 1 µM.

In the case of `CC[C@@H](Oc1ccc2c(c1)OCCn1cc(-c3ncnn3CC(F)(F)F)nc1-2)C(N)=O`, the IC50 was below 1 µM. `CC(C)n1nc(N)nc1-c1cn2c(n1)-c1cc(F)c(F)cc1OCC2` came in with an IC50 below 1 µM. The same measure for `Cc1nc(-c2ccc3c(c2)OCCn2cc(-c4ncnn4C(C)C)nc2-3)cn1CC(C)(C)O`: below 1 µM. The figure for `CC(C)n1ncnc1-c1cn2c(n1)-c1cc(-c3ccccc3)ccc1OCC2` is below 1 µM. The figure for `CC(C)n1ncnc1-c1cn2c(n1)-c1ccc(N3CCNC(=O)C3)nc1OCC2` is below 1 µM; for `Cc1nc(-c2cn3c(n2)-c2cnc(NCC(=O)O)cc2OCC3)n(C(C)C)n1` it is below 1 µM; for `CC(C)n1ncnc1-c1cc2n(n1)-c1cc(C(=O)N3CCS(=O)(=O)CC3)ccc1OCC2` it is below 1 µM. Compound `CC(C)n1ncnc1-c1cn2c(n1)-c1ccc(C3CN(C(C)(C)C(N)=O)C3)cc1OCC2` came in with an IC50 below 1 µM. `CC(C)n1ncnc1-n1cc2c(n1)-c1ccc(-c3cnn(CCO)c3)cc1OCC2` yielded an IC50 below 1 µM. The figure for `CC(C)n1ncnc1-c1cn2c(n1)-c1cnc(N3C4CCC3C(=O)NC4)cc1OCC2` (stereo not given) is below 1 µM.

Take `CC(C)n1ncnc1-c1cc2n(n1)-c1cc(C(=O)NC3CNC3)ccc1OCC2`: the IC50 is below 1 µM. `CC(C)[C@H](Oc1ccc2c(c1)OCCn1cc(-c3ncnn3CC(F)(F)F)nc1-2)C(N)=O` showed a concentration for half-maximal inhibition (IC50) below 1 µM. In turn, `CC(C)n1ncnc1-c1cn2c(n1)-c1cnc(N3CC[C@H](C)[C@H]3C(N)=O)cc1OCC2` yielded a half-maximal inhibitory concentration (IC50) below 1 µM. The figure for `CNc1cc2c(cn1)-c1nc(-c3ncnn3C(C)C)cn1CCO2` is below 1 µM; for `C[C@H](Oc1ccc2c(c1)OCCn1cc(-c3ncnn3-c3ccc(F)cc3F)nc1-2)C(N)=O` it is below 1 µM; for `CC(C)n1ncnc1-c1cn2c(n1)-c1cnc(N3CCNC(=O)C3)cc1OCC2` it is below 1 µM. Regarding `COCc1nc(-c2cn3c(n2)-c2ccccc2OCC3)n(C(C)C)n1`, the IC50 is below 1 µM. The same measure for `CC(C)N(CCO)C(=O)c1cn2c(n1)-c1ccc(C3CCN(CC(=O)N(C)C)CC3)cc1OCC2`: below 1 µM; for `CC(C)n1ncnc1-c1cn2c(n1)-c1ccc([C@@H]3C[C@H]4CC[C@@H](C3)N4CC(N)=O)cc1OCC2`: below 1 µM; for `CC(C)n1ncnc1-c1cn2c(n1)-c1ccc(C3CCN(CCO)CC3)cc1OCC2`: below 1 µM. The figure for `OCCN1CCC(c2ccc3c(c2)-c2nn(-c4ncnn4-c4ccc(F)cc4F)cc2CCO3)CC1` is below 1 µM; for `COC(=O)C(C)(C)n1cc(-c2ccc3c(c2)OCCn2cc(-c4nc(C)nn4C(C)C)nc2-3)cn1` it is below 1 µM; for `Cc1cn(C(C)C)c(-c2cn3c(n2)-c2ccc(-c4cnn(CC(C)(C)O)c4)cc2OCC3)n1` it is below 1 µM. The same measure for `CC(C)n1nc(CO)nc1-c1cn2c(n1)-c1cnc(N(C)C)cc1OCC2`: below 1 µM; for `NC(=O)c1ccc2c(c1)OCCc1cn(-c3ncnn3-c3ccc(F)cc3F)nc1-2`: below 1 µM. `Cc1nc(-c2cn3c(n2)-c2ccc(C4CCN(C(C)(C)CO)CC4)cc2OCC3)n(C(C)C)n1` returned a 50% inhibitory concentration (IC50) below 1 µM. The figure for `CC(C)n1ncnc1-c1cn2c(n1)-c1ccc(N(C)[C@@H](C)C(N)=O)cc1OCC2` is below 1 µM; for `Cc1nc(-c2cn3c(n2)-c2ccc(CCC(N)=O)cc2OCC3)n(C(C)C)n1` it is below 1 µM. `COC(=O)c1ccc2c(c1)OCCn1cc(-c3cccc(C(F)(F)F)c3)nc1-2` yielded an IC50 below 1 µM. The figure for `C[C@H](Nc1ccc2c(c1)OCCn1cc(-c3ncnn3CC(F)(F)F)nc1-2)C(N)=O` is below 1 µM; for `Cc1nc(-c2cn3c(n2)-c2ccc(N4CCC[C@H]4C(N)=O)cc2OCC3)n(CC(F)(F)F)n1` it is below 1 µM. With `CC(C)n1ncnc1-c1cn2c(n1)-c1ccc(-c3cnn(C(C)(C)C(=O)O)c3)cc1OCC2`, the IC50 was below 1 µM. The figure for `CC(C)n1ncnc1-c1cn2c(n1)-c1cnc(N3CC[C@@H](O)[C@H]3C(N)=O)cc1OCC2` is below 1 µM. `Cc1nc(-c2cn3c(n2)-c2ccc(C4CCN(CCO)CC4)cc2OCC3)n(C(C)C)n1` registered a half-inhibitory concentration (IC50) below 1 µM. The same measure for `CC(C)n1ncnc1-c1cn2c(n1)-c1ccc(OCC3(N)COC3)cc1OCC2`: below 1 µM; for `N#Cc1ccc2c(c1)-c1nc(-c3nc(N)nn3CC(F)(F)F)cn1CCO2`: below 1 µM. The same measure for `Cc1nc(-c2cn3c(n2)-c2cnc(N4CCCC4C4CCCCN4C)cc2OCC3)n(CC(F)(F)F)n1` (stereo not given): below 1 µM; for `CC(C)n1ncnc1-c1cn2c(n1)-c1cnc(N3CCC(C(N)=O)CC3)cc1OCC2`: below 1 µM. `CC(C)n1ncnc1-c1cn2c(n1)-c1ccc(=O)[nH]c1OCC2` returned an IC50 below 1 µM. The figure for `CC(C)n1ncnc1-c1cn2c(n1)-c1cnc(N3CCOCC3)cc1OCC2` is below 1 µM.

`CNC(=O)CN1CCC(c2ccc3c(c2)OCCn2cc(-c4ncnn4C(C)C)nc2-3)CC1` came in with an IC50 below 1 µM. `CC(C)n1ncnc1-c1cn2c(n1)-c1cnc(N3CC[C@H](O)[C@H]3C(N)=O)cc1OCC2` had an IC50 below 1 µM.

For `Cc1nc(-c2cn3c(n2)-c2cnc(NCC(N)=O)cc2OCC3)n(C(C)C)n1`, the IC50 is below 1 µM. The figure for `CC(C)n1ncnc1-c1cn2c(n1)-c1ccc(-c3cncn3C3CCCCO3)cc1OCC2` (stereo not given) is below 1 µM; for `OCc1nc(-c2cn3c(n2)-c2cnc(Cl)cc2OCC3)n(CC(F)(F)F)n1` it is below 1 µM; for `CC(C)n1ncnc1-c1cn2c(n1)-c1ccc(-c3cnc(N)nc3)cc1OCC2` it is below 1 µM. The figure for `CC(C)n1ncnc1-c1cc2n(n1)-c1cc(CN3CCNC(=O)C3)ccc1OCC2` is below 1 µM; for `CS(=O)(=O)c1ccccc1CNc1cc2c(cn1)-c1nc(-c3ncnn3-c3ccc(F)cc3F)cn1CCO2` it is below 1 µM; for `Cc1nc(-c2ccc3c(c2)OCCn2cc(-c4ncnn4C(C)C)nc2-3)cn1CCO` it is below 1 µM. The same measure for `CC(C)NC(=O)CN1CCN(c2cc3c(cn2)-c2nc(-c4ncnn4C(C)C)cn2CCO3)CC1`: below 1 µM; for `CC(C)n1ncnc1-c1cn2c(n1)-c1ccc(C3C(=O)NNC3=O)cc1OCC2`: below 1 µM. Regarding `CC(C)n1ncnc1-n1cc2c(n1)-c1cc(C(=O)NCCO)ccc1OCC2`, the IC50 is below 1 µM.

`C[C@H](Oc1ccc2c(c1)OCCn1cc(-c3ncnn3C3CC3)nc1-2)C(N)=O` registered a half-inhibitory concentration (IC50) below 1 µM.

With `CC(C)n1ncnc1-c1cn2c(n1)-c1ccc(-c3cn(CC(C)(C)O)cn3)cc1OCC2`, the IC50 was below 1 µM. In turn, `Fc1ccc(-n2ncnc2-c2cn3c(n2)-c2cnc(NCCCn4ccnc4)cc2OCC3)c(F)c1` came in with a 50% inhibitory concentration (IC50) below 1 µM. The same measure for `CC(=O)N1CC(c2ccc3c(c2)-n2nc(-c4ncnn4C(C)C)cc2CCO3)C1`: below 1 µM; for `Cc1ccc2c(c1)OCCn1cc(-c3nc(C)nn3C(C)C)nc1-2`: below 1 µM; for `NC(=O)CN1CCC(c2ccc3c(c2)-c2nn(-c4ncnn4-c4ccc(F)cc4F)cc2CCO3)CC1`: below 1 µM. In turn, `Cc1nc(-c2cn3c(n2)-c2cnc(N4C[C@H](O)C[C@H]4C(N)=O)cc2OCC3)n(C(C)C)n1` registered an IC50 below 1 µM. The figure for `CC(C)n1ncnc1-c1cn2c(n1)-c1cc(-c3cn[nH]c3)ccc1OCC2` is below 1 µM; for `CNC(=O)[C@@H]1CCCN1c1cc2c(cn1)-c1nc(-c3ncnn3C(C)C)cn1CCO2` it is below 1 µM; for `CC(C)N(CCO)C(=O)c1cc2n(n1)-c1ccccc1OCC2` it is below 1 µM.

`NC(=O)[C@@H]1CCCN1c1cc2c(cn1)-c1nc(-c3ncnn3-c3ccccc3Cl)cn1CCO2` displayed a half-maximal inhibitory concentration (IC50) below 1 µM. The figure for `CC(C)n1ncnc1-c1cn2c(n1)-c1cnc(NCC(O)c3nccn3C)cc1OCC2` (stereo not given) is below 1 µM; for `CC(C)n1ncnc1-c1cn2c(n1)-c1cc(C(F)F)ncc1OCC2` it is below 1 µM. The figure for `CC(C)(O)CN1CC(c2ccc3c(c2)OCCc2cn(-c4ncnn4-c4ccc(F)cc4F)nc2-3)C1` is below 1 µM. The figure for `CC(C)n1ncnc1-c1cn2c(n1)-c1cnc(N3CCC(C)(C)[C@H]3C(N)=O)cc1OCC2` is below 1 µM; for `CC(C)n1ncnc1-c1cn2c(n1)-c1ccc(N3CC[C@H]3C(N)=O)cc1OCC2` it is below 1 µM. Regarding `OCCN1CC(c2ccc3c(c2)OCCc2cn(-c4ncnn4-c4ccc(F)cc4F)nc2-3)C1`, the half-maximal inhibitory concentration (IC50) is below 1 µM. As for `Cc1nc(-c2cn3c(n2)-c2cc(F)c(F)cc2OCC3)n(C(C)C)n1`, the IC50 was below 1 µM.

`N#Cc1ccc2c(c1)OCCn1cc(-c3nc(N)nn3CC(F)(F)F)nc1-2` showed an IC50 below 1 µM.

As to `CC(C)Oc1ccc2c(c1)OCCn1cc(-c3ncnn3C(C)C)nc1-2`, the half-inhibitory concentration (IC50) is below 1 µM. The figure for `CC(C)n1ncnc1-c1cn2c(n1)-c1ccc(N3C[C@@H](F)C[C@H]3C(N)=O)cc1OCC2` is below 1 µM; for `Nc1nc(-c2cn3c(n2)-c2ccc(-c4ccc(Cl)cc4)cc2OCC3)n(-c2ccccc2Cl)n1` it is below 1 µM; for `Cn1ccnc1C(O)CNc1cc2c(cn1)-c1nc(-c3ncnn3-c3ccc(F)cc3F)cn1CCO2` (stereo not given) it is below 1 µM. The figure for `Cc1nc(-c2cn3c(n2)-c2cnc(N4CCC[C@H]4C(N)=O)cc2OCC3)n(-c2cc(F)cc(F)c2)n1` is below 1 µM; for `CC(C)n1ncnc1-n1cc2c(n1)-c1ccc(-c3cn[nH]c3)cc1OCC2` it is below 1 µM.

For `Cc1nc(-c2cn3c(n2)-c2cnc(N4C[C@@H](O)C[C@H]4C(N)=O)cc2OCC3)n(C(C)C)n1`, the IC50 was below 1 µM.

The compound `CC(C)n1nc(N)nc1-c1cn2c(n1)-c1ccc(-c3cnn(CCO)c3)cc1OCC2` yielded a 50% inhibitory concentration (IC50) below 1 µM. The same measure for `CC(C)n1ncnc1-c1cn2c(n1)-c1cnc(OC(C)(C)C(N)=O)cc1OCC2`: below 1 µM.

In the case of `CC(C)n1ncnc1-c1cn2c(n1)-c1ccc(N[C@@H](C)C(N)=O)cc1OCC2`, the IC50 is below 1 µM. Take `Cc1nc(-c2cn3c(n2)-c2cnc(N4CCCC4CN4CCCCC4)cc2OCC3)n(CC(F)(F)F)n1` (stereo not given): the IC50 is below 1 µM. As for `OCCn1cc(-c2ccc3c(c2)OCCn2cc(-c4ncnn4CC(F)(F)F)nc2-3)cn1`, the IC50 is below 1 µM. The same measure for `CC(C)n1ncnc1-c1cn2c(n1)-c1ccc(O[C@@H](CO)C(N)=O)cc1OCC2`: below 1 µM.
